In article PMC9154192 (PLoS Biology, 2022):
In brackets after ≈: the same amount, converted by molar mass. Read-outs that look alike come from different tables or passages of the source.

Legend:
M. marseiliense = test: microbe, parasite or virus in culture; type: cell-based; conditions: Mycobacterium
[1] = test system: clinically isolated MDR, XDR, and TDR M. tuberculosis strains; test: microbe, parasite or virus in culture; type: cell-based; conditions: Mycobacterium tuberculosis
M. marinum = test: microbe, parasite or virus in culture; type: cell-based; conditions: Mycobacterium marinum
M. massiliense = test: microbe, parasite or virus in culture; type: cell-based, Mycobacterium massiliense; conditions: Mycobacteroides abscessus
M. chitae = test: microbe, parasite or virus in culture; type: cell-based, Mycobacterium chitae; conditions: Mycolicibacterium chitae
M. goodie = test: microbe, parasite or virus in culture; type: cell-based; conditions: Mycobacterium
M. abscessus = test: microbe, parasite or virus in culture; type: cell-based, Mycobacterium abscessus; conditions: Mycobacteroides abscessus
M. arupense = test: microbe, parasite or virus in culture; type: cell-based, Mycobacterium arupense; conditions: Mycolicibacter arupensis
M. tuberculosis H37Rv = test: microbe, parasite or virus in culture; type: cell-based, Mycobacterium tuberculosis; conditions: Mycobacterium tuberculosis, H37RV; read-out: MIC
M. kyorinense = test: microbe, parasite or virus in culture; type: cell-based; conditions: Mycobacterium kyorinense
M. smegmatis = test: microbe, parasite or virus in culture; type: cell-based, Mycobacterium smegmatis; conditions: Mycolicibacterium smegmatis
M. xenopi = test: microbe, parasite or virus in culture; type: cell-based; conditions: Mycobacterium xenopi
M. szulgai = test: microbe, parasite or virus in culture; type: cell-based; conditions: Mycobacterium szulgai
M. bolletii = test: microbe, parasite or virus in culture; type: cell-based, Mycobacterium bolletii; conditions: Mycobacteroides abscessus
M. peregrinum = test: microbe, parasite or virus in culture; type: cell-based, Mycobacterium peregrinum; conditions: Mycolicibacterium peregrinum
M. phlei = test: microbe, parasite or virus in culture; type: cell-based, Mycobacterium phlei; conditions: Mycolicibacterium phlei
M. gilvum = test: microbe, parasite or virus in culture; type: cell-based, Mycobacterium gilvum; conditions: Mycolicibacterium gilvum
M. fortuitum = test: microbe, parasite or virus in culture; type: cell-based, Mycobacterium fortuitum; conditions: Mycolicibacterium fortuitum
M. intracellulare = test: microbe, parasite or virus in culture; type: cell-based; conditions: Mycobacterium intracellulare
Candida albicans = test: Broth dilution MIC (CLSI); type: cell-based
Text: (§1) Bacteria (Acinetobacter baumannii NCCP 14782, Citrobacter freundii NCCP 14766, Enterobacter aerogenes NCCP 14761, Escherichia coli NCCP 14762, Escherichia coli O157 NCCP 14541, Klebsiella pneumoniae NCCP 14764, Proteus mirabilis NCCP 14763, Proteus vulgaris NCCP 14765, Pseudomonas aeruginosa NCCP 14781, Salmonella Enteritidis NCCP 14771, Salmonella Paratyphi A NCCP 14759, Salmonella Typhimurium NCCP 16207, Serratia marcescens NCCP 14770, Shigella boydii NCCP 14745, Shigella dysenteriae NCCP 14746, Shigella flexneri NCCP 14744, Shigella sonnei NCCP 14773, Bacillus subtilis NCCP 11101, Corynebacterium diphtheriae NCCP 10353, Staphylococcus aureus MSSA NCCP 14780, Staphylococcus aureus MRSA NCCP 14769, Staphylococcus epidermidis NCCP 14768, Streptococcus pneumoniae NCCP 14774) and fungi (Aspergillus fumigatus NCCP 22454, Candida albicans NCCP 32557, Cryptococcus neoformans NCCP 32559, Microsporum canis NCCP 22454, Rhizopus oryzae NCCP 22458, Saccharomyces cerevisiae NCCP 32558, Trichophyton rubrum NCCP 22456) strains were obtained from the National Culture Collection for Pathogens (NCCP) (Chungbuk, Korea). The MIC of each agent was determined following the Clinical and Laboratory Standards Institute (CLSI).[40]

Cryptococcus neoformans = test: Broth dilution MIC (CLSI); type: cell-based
Text: as §1

[2] = test system: Corynebacterium diphtheriae; test: Broth dilution MIC (CLSI); type: cell-based
Text: as §1

Salmonella Paratyphi A = test: Broth dilution MIC (CLSI); type: cell-based; conditions: Salmonella enterica
Text: as §1

Pseudomonas aeruginosa = test: Broth dilution MIC (CLSI); type: cell-based
Text: as §1

Klebsiella pneumoniae = test: Broth dilution MIC (CLSI); type: cell-based
Text: as §1

[3] = test system: Staphylococcus aureus, MRSA; test: Broth dilution MIC (CLSI); type: cell-based
Text: as §1

Proteus mirabilis = test: Broth dilution MIC (CLSI); type: cell-based
Text: as §1

Saccharomyces cerevisiae = test: Broth dilution MIC (CLSI); type: cell-based
Text: as §1

Aspergillus fumigatus = test: Broth dilution MIC (CLSI); type: cell-based
Text: as §1

Trichophyton rubrum = test: Broth dilution MIC (CLSI); type: cell-based
Text: as §1

Salmonella Typhimurium = test: Broth dilution MIC (CLSI); type: cell-based; conditions: Salmonella enterica
Text: as §1

Salmonella Enteritidis = test: Broth dilution MIC (CLSI); type: cell-based; conditions: Salmonella enterica
Text: as §1

Microsporum canis = test: Broth dilution MIC (CLSI); type: cell-based
Text: as §1

Proteus vulgaris = test: Broth dilution MIC (CLSI); type: cell-based
Text: as §1

Rhizopus oryzae = test: Broth dilution MIC (CLSI); type: cell-based; conditions: Rhizopus arrhizus
Text: as §1

Bacillus subtilis = test: Broth dilution MIC (CLSI); type: cell-based
Text: as §1

Escherichia coli = test: Broth dilution MIC (CLSI); type: cell-based
Text: as §1

Enterobacter aerogenes = test: Broth dilution MIC (CLSI); type: cell-based; conditions: Klebsiella aerogenes
Text: as §1

Citrobacter freundii = test: Broth dilution MIC (CLSI); type: cell-based
Text: as §1

Escherichia coli O157 = test: Broth dilution MIC (CLSI); type: cell-based
Text: as §1

Streptococcus pneumoniae = test: Broth dilution MIC (CLSI); type: cell-based
Text: as §1

Shigella dysenteriae = test: Broth dilution MIC (CLSI); type: cell-based
Text: as §1

## CO[C@H]1/C=C/O[C@@]2(C)Oc3c(C)c(O)c4c(O)c(c(/C=N/N5CCN(C)CC5)c(O)c4c3C2=O)NC(=O)/C(C)=C\C=C\[C@H](C)[C@H](O)[C@@H](C)[C@@H](O)[C@@H](C)[C@H](OC(C)=O)[C@@H]1C [RIF, rifampicin, reference compound]
M. marseiliense
  MIC: > 100 µg/mL
[1]; TDR-1
  MIC: > 100 µg/mL
[1]; TDR-2
  MIC: > 100 µg/mL
[1]; TDR-3
  MIC: > 100 µg/mL
M. marinum
  MIC: < 0.1 µg/mL
M. massiliense
  MIC: 0.2 µg/mL (≈ 0.243 µM)
M. chitae
  MIC: 6.3 µg/mL (≈ 7.66 µM)
M. goodie
  MIC: 100 µg/mL (≈ 122 µM)
M. abscessus
  MIC: > 100 µg/mL
M. arupense
  MIC: 0.1 µg/mL (≈ 0.122 µM)
M. tuberculosis H37Rv
  MIC: 0.1 µg/mL (≈ 0.122 µM)
M. kyorinense
  MIC: 50 µg/mL (≈ 60.8 µM)
M. smegmatis
  MIC: 25 µg/mL (≈ 30.4 µM)
M. xenopi
  MIC: 0.2 µg/mL (≈ 0.243 µM)
M. szulgai
  MIC: < 0.1 µg/mL
M. bolletii
  MIC: > 100 µg/mL
M. peregrinum
  MIC: 25 µg/mL (≈ 30.4 µM)
M. phlei
  MIC: 25 µg/mL (≈ 30.4 µM)
M. gilvum
  MIC: 0.2 µg/mL (≈ 0.243 µM)
M. fortuitum
  MIC: 0.2 µg/mL (≈ 0.243 µM)
M. intracellulare
  MIC: < 0.1 µg/mL
Candida albicans
  MIC: > 100 µg/mL
Cryptococcus neoformans
  MIC: > 100 µg/mL
[2]
  MIC: 0.05 µg/mL (≈ 0.0608 µM)
Salmonella Paratyphi A; PARATYPHI
  MIC: 12.5 µg/mL (≈ 15.2 µM)
Pseudomonas aeruginosa
  MIC: 25 µg/mL (≈ 30.4 µM)
Klebsiella pneumoniae
  MIC: 6.3 µg/mL (≈ 7.66 µM)
[3]
  MIC: 0.05 µg/mL (≈ 0.0608 µM)
Proteus mirabilis
  MIC: 3.1 µg/mL (≈ 3.77 µM)
Saccharomyces cerevisiae
  MIC: > 100 µg/mL
Aspergillus fumigatus
  MIC: > 100 µg/mL
Trichophyton rubrum
  MIC: > 100 µg/mL
Salmonella Typhimurium; TYPHIMURIUM
  MIC: 12.5 µg/mL (≈ 15.2 µM)
Salmonella Enteritidis; ENTERITIDIS
  MIC: 12.5 µg/mL (≈ 15.2 µM)
Microsporum canis
  MIC: > 100 µg/mL
Proteus vulgaris
  MIC: 6.3 µg/mL (≈ 7.66 µM)
Rhizopus oryzae
  MIC: > 100 µg/mL
Bacillus subtilis
  MIC: < 0.1 µg/mL
Escherichia coli
  MIC: 6.3 µg/mL (≈ 7.66 µM)
Enterobacter aerogenes
  MIC: 6.3 µg/mL (≈ 7.66 µM)
Citrobacter freundii
  MIC: 25 µg/mL (≈ 30.4 µM)
Escherichia coli O157
  MIC: 3.1 µg/mL (≈ 3.77 µM)
Streptococcus pneumoniae
  MIC: 0.05 µg/mL (≈ 0.0608 µM)
Shigella dysenteriae
  MIC: 1.6 µg/mL (≈ 1.94 µM)

## [H]/N=C(/N)N[C@H]1[C@H](O)[C@@H](O)[C@H](O[C@@H]2O[C@@H](C)[C@](O)(C=O)[C@H]2O[C@@H]2O[C@@H](CO)[C@H](O)[C@@H](O)[C@@H]2NC)[C@@H](N/C(N)=N\[H])[C@@H]1O [STR, streptomycin]
M. marseiliense
  MIC: 25 µg/mL (≈ 43 µM)
[1]; TDR-1
  MIC: 50 µg/mL (≈ 86 µM)
[1]; TDR-2
  MIC: > 100 µg/mL
[1]; TDR-3
  MIC: 50 µg/mL (≈ 86 µM)
M. marinum
  MIC: < 0.1 µg/mL
M. massiliense
  MIC: 0.8 µg/mL (≈ 1.38 µM)
M. chitae
  MIC: > 100 µg/mL
M. goodie
  MIC: 0.2 µg/mL (≈ 0.344 µM)
M. abscessus
  MIC: 25 µg/mL (≈ 43 µM)
M. arupense
  MIC: 0.1 µg/mL (≈ 0.172 µM)
M. tuberculosis H37Rv
  MIC: 0.4 µg/mL (≈ 0.688 µM)
M. kyorinense
  MIC: 0.8 µg/mL (≈ 1.38 µM)
M. smegmatis
  MIC: 0.2 µg/mL (≈ 0.344 µM)
M. xenopi
  MIC: 0.2 µg/mL (≈ 0.344 µM)
M. szulgai
  MIC: 0.2 µg/mL (≈ 0.344 µM)
M. bolletii
  MIC: 25 µg/mL (≈ 43 µM)
M. peregrinum
  MIC: 3.1 µg/mL (≈ 5.33 µM)
M. phlei
  MIC: 0.2 µg/mL (≈ 0.344 µM)
M. gilvum
  MIC: 0.2 µg/mL (≈ 0.344 µM)
M. fortuitum
  MIC: 6.3 µg/mL (≈ 10.8 µM)
M. intracellulare
  MIC: 0.8 µg/mL (≈ 1.38 µM)
Candida albicans; read-out: MIC
  MIC: > 100 µg/mL
Cryptococcus neoformans; read-out: MIC
  MIC: > 100 µg/mL
[2]; read-out: MIC
  MIC: 3.1 µg/mL (≈ 5.33 µM)
Salmonella Paratyphi A; Salmonella Paratyphi A, read-out: MIC
  MIC: 6.3 µg/mL (≈ 10.8 µM)
Pseudomonas aeruginosa; read-out: MIC
  MIC: 25 µg/mL (≈ 43 µM)
Klebsiella pneumoniae; read-out: MIC
  MIC: 3.1 µg/mL (≈ 5.33 µM)
[3]; read-out: MIC
  MIC: 3.1 µg/mL (≈ 5.33 µM)
Proteus mirabilis; read-out: MIC
  MIC: 6.3 µg/mL (≈ 10.8 µM)
Saccharomyces cerevisiae; read-out: MIC
  MIC: > 100 µg/mL
Aspergillus fumigatus; read-out: MIC
  MIC: > 100 µg/mL
Trichophyton rubrum; read-out: MIC
  MIC: > 100 µg/mL
Salmonella Typhimurium; Salmonella Typhimurium, read-out: MIC
  MIC: 25 µg/mL (≈ 43 µM)
Salmonella Enteritidis; Salmonella Enteritidis, read-out: MIC
  MIC: 3.1 µg/mL (≈ 5.33 µM)
Microsporum canis; read-out: MIC
  MIC: > 100 µg/mL
Proteus vulgaris; read-out: MIC
  MIC: 25 µg/mL (≈ 43 µM)
Rhizopus oryzae; Rhizopus oryzae, read-out: MIC
  MIC: > 100 µg/mL
Bacillus subtilis; read-out: MIC
  MIC: 0.8 µg/mL (≈ 1.38 µM)
Escherichia coli; read-out: MIC
  MIC: 25 µg/mL (≈ 43 µM)
Enterobacter aerogenes; Enterobacter aerogenes, read-out: MIC
  MIC: 3.1 µg/mL (≈ 5.33 µM)
Citrobacter freundii; read-out: MIC
  MIC: 1.6 µg/mL (≈ 2.75 µM)
Escherichia coli O157; read-out: MIC
  MIC: 6.3 µg/mL (≈ 10.8 µM)
Streptococcus pneumoniae; read-out: MIC
  MIC: 12.5 µg/mL (≈ 21.5 µM)
Shigella dysenteriae; read-out: MIC
  MIC: 25 µg/mL (≈ 43 µM)
